Assay results from patent US10894820B2, “Antiretroviral drug targeting human endogenous retrovirus” (priority 2014, dated 2021).

Legend:
[1] = tested on: HERV-W Reverse-transcriptase (RT); test: Western blot of HERV-W pol-encoded Reverse-Transcriptase protein in CH1/CH2 cell cultures treated with GNbAC1 and/or AZT; format: cell-based, Human; conditions: CH1 and CH2 co-culture; AZT 1 μg/ml, GNbAC1 300 μg/ml; versus mock-treated cells
Description: Human CH1 and CH2 cells (1:1) cells were co-cultured for optimizing the growth of CH2 cells and maintained in 6-well plates (CC7672-7506; CytoOne) at a density of 1.10^6 cell/well in IMDM medium (Ser. No. 12/440,053; Lifetech) supplemented with 10% fetal calf serum (Ser. No. 10/270,106; Invitrogen), 1% penicillin/streptomycin (P4333; Sigma) at 37° C. with 5% CO2. Cells were treated with i) AZT (1 μg/ml, A21-69; Sigma), ii) GNbAC1 (300 μg/ml, T950111-A; Polymun), iii) AZT+GNbAC1 or corresponding controls with GNbAC1 buffer [20 mM His, 5% Sucrose (w/v), 0.01% Tween 20 (w/v)].
CH1 and CH2 cells were resuspended in 200 μl of RIPA buffer (R0278, SIGMA) containing cOmplete® anti-phosphatase inhibitor cocktail (04 693 132001; Roche) and 0.05% LPG (326495-22-1; Avanti Polar) at 4° C., incubated for 2 hours at 26° C. on a rotating platform and centrifuged at 10000 g for 20 minutes at 26° C. Supernatant were collected and stored at −20° C.
Protein extracts were diluted (2:1) in 2× Laemmli buffer (Biorad) and heated for 5 minutes at 100° C. before loading. Proteins were separated by 7.5% sodium dodecyl sulfate-polyacrylamide gel electrophoresis (TGX, Biorad). Gels were run for a time period of 15 min at 120 mA in running buffer (Life Technologies). […] Protein of interest was detected with a colometric reaction (Opti 4-CN, Biorad), according to the provided protocol. […]

[2] = healthy volunteers, Phase 1
[3] = tested on: HERV-W related transcripts (env and pol mRNA); test: HERV-W related transcripts levels by RT-qPCR in PBMC of MS patients treated with GNbAC1 (GNC002 Phase IIa trial); format: in vivo, human; conditions: for all HERV-W transcript levels compared to basal values at inclusion: at the 6th monthly GNbAC1 administration, relative expression to GUS B
Description: The present GNC002 Phase IIa clinical trial was performed to assess the safety profile and the pharmacokinetics of GNbAC1 at 2 and 6 mg/kg in 10 MS patients. GNC002 consisted in a 12 months longitudinal study, in which GNbAC1 is administered on a monthly basis.
The present analysis was conducted on samples collected during the first 6 months of GNC002, where HERV-W related transcripts levels were assessed by real time quantitative polymerase chain reaction (RT-qPCR) in peripheral blood mononuclear cells (PBMC) of enrolled patients. HERV-W transcripts are assessed by different primers/probe sets as follows: MSRV-env, HERV-W-UNO, HERV-W-UNO2,
Briefly, the first step consisted in the extraction of total RNA from PBMC samples. Samples were PBMC isolated from blood collected on CPT tubes and frozen in 0.5 ml of DMSO 10% in Foetal Calf Serum. After thawing, PBMC samples were washed with ice-cold PBS and total RNAs were extracted with QIAamp RNeasy Mini Kit. Then, cDNAs were prepared by retro-transcribing all mRNA contained in previously extracted total RNAs. Quantitative PCRs were conducted on these cDNAs, with addition of an internal standard used as an inter-plate calibrator (allowing the standardization of the values throughout an experiment with multiple plates). Results were expressed as the relative expression of the targeted RNA (MSRV/HERV-W), by a ratio to the expression of GUS B RNA, a reference housekeeping gene with a stable expression level in MS population.
The Relative Expression of each targeted RNA within each sample is calculated as follows: Targeted RNA Relative Expression to GUS B=2^(Cq GUS B-Cq targeted RNA) Extraction Yields and Samples Exclusion
For each patient included in the study, PBMCs were isolated from blood sample at Day 1 (inclusion), Day 2, Day 8, Day 15, and Day 29. Afterwards, patients have received 5 additional monthly GNbAC1 administrations and PBMCs were isolated from blood sample before each infusion of antibody. Thus, the following results represent the variation of each HERV-W related transcript over the first 6 months of GNC002 study.
The second GNbAC1 administration occurred at different time points from Day 1, depending on patients. Thus, the mean variation of HERV-W related transcripts was assessed with blood samples collected before each GNbAC1 administration only.

## GNbAC1: humanized IgG4 monoclonal antibody directed against HERV-W/MSRV Envelope protein; heavy chain SEQ ID No: 9, light chain SEQ ID No: 10
[1]
  HERV-W RT protein expression (Western blot signal): minor effects
[2]
  pharmacokinetics: linear
  safety profile: favorable
[3]; 2 mg/kg cohort, PBMC
  all HERV-W transcript levels compared to basal values at inclusion: decrease
[3]; 6 mg/kg cohort, PBMC
  all HERV-W transcript levels compared to basal values at inclusion: confirmed
[3]; after three and six months of treatment
  env mRNA and pol mRNA levels compared to levels before treatment: parallel and progressive decrease
[3]; injected once a month over six months, PBMC, pol qPCR protocol
  HERV-W pol mRNA level: decrease is also marked
